Read-outs that look alike come from different tables or passages of the source.
How the values were obtained:
recombinant T. cruzi TR = biological target: T1, recombinant T. cruzi TR (Trypanosoma cruzi, UniProt P28593); test: TR enzyme inhibition (NADPH consumption at 340 nm); assay type: biochemical; settings: for inhibition at 5 µM: inhibitor 5 µM; for inhibition at 10 µM: inhibitor 10 µM; for inhibition at 20 µM: inhibitor 20 µM; for inhibition at 40 µM: inhibitor 40 µM; for inhibition at 60 µM: inhibitor 60 µM; for inhibition at 80 µM: inhibitor 80 µM, T-085 precipitates in the assay at 80 µM
T1 construct: made in house
Description: (§1) Trypanothione disulfide (TS2) and recombinant T. cruzi TR were prepared following published procedures. Recombinant human glutathione reductase (GR) was kindly provided by Dr. Heiner Schirmer, Heidelberg Germany. Stock solutions (5 mM) of the inhibitors were prepared in DMSO. The kinetic analyses were conducted using a Jasco V650 spectrophotometer. All enzymatic tests were performed in polystyrene optical cuvettes (10 × 4 × 45 mm). TR activity was measured at 25 °C in a total volume of 1 mL TR assay buffer (40 mM HEPES, 1 mM EDTA, pH 7.5 [47]) containing 100 μM NADPH and 5–10 mU enzyme in the absence and presence of the inhibitor. Each assay contained a total of 5% DMSO. The reaction was started by adding TS2 and NADPH consumption was followed at 340 nm.
Five compound concentrations were used ranging from 100–5 μM. All measurements were performed twice in three independent series. Enzyme activity was plotted versus increasing inhibitor concentrations. IC50 values were calculated using the four-parameter equation model 205 and the option “unlock” from the XLfit add-in (IDBS, Guildford, United Kingdom) for Excel (Microsoft Corporation, Redmond, WA, USA).
The type of inhibition and the inhibitor constants were derived from Lineweaver-Burk plot. The activity of TR was measured in the absence and presence of two to three constant concentrations of inhibitor varying the concentration of TS2 (20, 40, 60, 100 and 200 µM). The inhibitory constant Ki was calculated from the direct plot using nonlinear least-squares data fitting in Excel spreadsheet.

[1] = tested on: T. cruzi INC-5 epimastigotes; test: Viability (MTT) assay on T. cruzi epimastigotes; assay type: cell-based, Trypanosoma cruzi; settings: 24 h, mean and SD of triplicate
Description: In this study, two strains of T. cruzi isolated in Mexico were used. […] Epimastigotes were cultured in vitro in liver infusion-tryptose (LIT) medium supplemented with 10% heat inactivated fetal bovine serum (FBS) (Gibco) and 100 U/mL penicillin-streptomycin (In vitro S.A.), and incubated at 27 °C. CD1 mice, aged 6–8 weeks, were infected with T. cruzi to obtain bloodstream trypomastigote samples.
Viability assays of T. cruzi epimastigotes using 3-(4,5-dimethylthiazol-2-yl)-2,5-diphenyltetrazolium bromide (MTT) were performed. Briefly, the parasites were harvested during the exponential growth phase for a period of five days. In a 96-well microplate 1x10^6 epimastigotes were deposited in brain-heart infusion (BHI) medium supplemented with 10% FBS and 100 U/mL antibiotic-antifungal mixture (Gibco). […] Each well reached a final volume of 100 µL. Each condition was assessed in triplicate. The microplate was incubated for 24 h at 27 °C in darkness. Afterwards, 10 μL of a 5 mg/mL MTT solution was added and the plate was incubated for 20 h at 27 °C. Then 200 μL of 10% dodecyl sulfate (SDS)/0.1% HCl solution was added to dissolve formazan salts; the plate was incubated an additional 4 h. Finally, the plate was read at 570 nm in a spectrophotometer (Multiskan EX Thermo Electron, Taipei, Taiwan). The amount of viable cells was proportional to the amount of formazan produced. […] Later the results were converted to micromolar units. […] As a […] control, parasites were incubated only in culture medium with a 1% DMSO concentration, corresponding to the highest sample dilution of DMSO [34, 35, 36].

[2] = biological target: T2, recombinant human glutathione reductase (GR) (Homo sapiens, UniProt P00390); test: GR enzyme inhibition (NADPH consumption at 340 nm); assay type: biochemical; settings: inhibitor 5-60 μM; 100 µM GSSG; read-out: IC50 against hGR
T2 sequence (P00390 44-522): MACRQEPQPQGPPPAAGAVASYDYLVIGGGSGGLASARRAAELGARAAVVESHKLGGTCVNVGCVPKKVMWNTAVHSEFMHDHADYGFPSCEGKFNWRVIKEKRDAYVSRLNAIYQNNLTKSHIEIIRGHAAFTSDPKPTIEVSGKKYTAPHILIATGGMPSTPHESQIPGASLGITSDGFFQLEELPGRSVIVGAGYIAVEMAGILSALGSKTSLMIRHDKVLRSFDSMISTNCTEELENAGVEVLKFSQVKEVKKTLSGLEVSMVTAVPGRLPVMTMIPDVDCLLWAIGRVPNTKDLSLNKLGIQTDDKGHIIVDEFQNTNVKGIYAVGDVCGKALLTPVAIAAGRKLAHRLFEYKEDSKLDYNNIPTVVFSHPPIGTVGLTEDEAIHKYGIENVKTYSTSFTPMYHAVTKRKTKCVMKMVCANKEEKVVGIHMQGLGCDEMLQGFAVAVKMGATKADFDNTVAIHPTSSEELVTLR
Description: as §1
GR activity was measured at 25 °C in a total volume of 1 mL GR assay buffer (20.5 mM KH2PO4, 26.5 mM K2HPO4, 200 mM KCl, 1 mM EDTA, pH 6.9). The assays contained 100 µM NADPH and 5–10 mU GR and varying concentrations of the inhibitor. The reaction was started by adding 100 µM GSSG and the absorption decrease was followed at 340 nm.
Five compound concentrations were used ranging from 100–5 μM. […] IC50 values were calculated using the four-parameter equation model 205 and the option “unlock” from the XLfit add-in (IDBS, Guildford, United Kingdom) for Excel (Microsoft Corporation, Redmond, WA, USA).

[3] = 40 µM TS2, read-out: % Inhibition of TR at 40 µM [TS2]
[4] = 100 µM TS2, read-out: % Inhibition of TR at 100 µM [TS2]

T1 sequence (P28593 whole entry): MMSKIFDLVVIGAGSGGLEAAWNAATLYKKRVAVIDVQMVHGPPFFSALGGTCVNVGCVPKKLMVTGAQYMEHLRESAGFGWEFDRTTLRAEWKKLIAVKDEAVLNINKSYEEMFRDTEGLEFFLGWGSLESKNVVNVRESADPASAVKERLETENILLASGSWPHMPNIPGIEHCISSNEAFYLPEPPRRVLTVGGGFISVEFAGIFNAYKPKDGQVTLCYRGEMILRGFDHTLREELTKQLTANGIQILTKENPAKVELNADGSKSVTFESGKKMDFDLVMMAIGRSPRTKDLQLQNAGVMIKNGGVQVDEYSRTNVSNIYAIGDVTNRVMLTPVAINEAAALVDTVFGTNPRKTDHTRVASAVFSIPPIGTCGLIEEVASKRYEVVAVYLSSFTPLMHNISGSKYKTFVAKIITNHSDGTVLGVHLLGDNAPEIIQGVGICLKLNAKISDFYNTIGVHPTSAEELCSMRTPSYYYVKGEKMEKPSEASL

With `CC(C)OC(=O)c1ccc2c(c1)[n+]([O-])c(C(=O)C(C)C)c(C(F)(F)F)[n+]2[O-]` [Compound T-085, Isopropyl 2-isobutyryl-3-trifluoromethylquinoxaline-7-carboxylate 1,4-di-N-oxide] the type of inhibition (recombinant T. cruzi TR; TcTR, Lineweaver-Burk plot) was “non-competitive inhibitor”, the Ki (recombinant T. cruzi TR; TcTR, Lineweaver-Burk plot, inhibitor 15 and 50 µM, TS2 20-200 µM) was 35 µM and the inhibition at 5 µM (recombinant T. cruzi TR; [3]) was 20.3%. For the same compound, the inhibition at 5 µM (recombinant T. cruzi TR; [4]) was 15.2%, the inhibition at 10 µM (recombinant T. cruzi TR; [3]) was 34.1% and the inhibition at 10 µM (recombinant T. cruzi TR; [4]) was 24.7%. The inhibition at 20 µM (recombinant T. cruzi TR; [3]) was 45.7%, the inhibition at 20 µM (recombinant T. cruzi TR; [4]) was 36.1% and the inhibition at 40 µM (recombinant T. cruzi TR; [3]) was 55.1%. For the same compound, the inhibition at 40 µM (recombinant T. cruzi TR; [4]) was 48.1%, the inhibition at 60 µM (recombinant T. cruzi TR; the highest concentration that could be measured, 100 μM or 40 μM TS2, read-out: % inhibition of TR) was 60% and the inhibition at 60 µM (recombinant T. cruzi TR; [3]) was 60.9%. For the same compound, the inhibition at 60 µM (recombinant T. cruzi TR; [4]) was 60.1%, the inhibition at 80 µM (recombinant T. cruzi TR; [3]) was 44% and the inhibition at 80 µM (recombinant T. cruzi TR; [4]) was 33%. It also gave an IC50 (recombinant T. cruzi TR; inhibitor 5-60 μM, read-out: IC50 against TcTR) of 50 µM, an IC50 [1] of 2.42 ± 0.5 µM and an IC50 ([1]; Trypanosoma cruzi) of less than 2.5 µM. The IC50 [2] was 50 µM.
